From PMC6271079, “Amino Acid Derivatives of Ligustrazine-Oleanolic Acid as New Cytotoxic Agents” (Molecules, 2014)
pIC50: −log10 of the molar value.

Tests used:
HepG2 = experiment: MTT cytotoxicity assay, HepG2; assay type: cell-based; conditions: human hepatoma cells
Method: (§1) The cytotoxicity of these compounds was tested on five cells lines by the standard MTT assay. The human cancer cells lines (HepG2, HT-29, Hela, BGC-823) and MDCK cells were provided by the Chinese Academy of Medical Sciences Peking Union Medical College. The tumor cells were cultured in RPMI 1640 medium supplemented with 10% (v/v) fetal bovine serum and 1% (v/v) penicillin-streptomycin (Thermo Technologies, New York, NY, USA) at 37 °C in a humidified atmosphere with 5% CO2. The growing tumor cells at a density 3 × 10^3 cells/mL were exposed to various concentrations of the tested drugs and incubated in a 96-well microtiter plate for 72 h (37 °C, 5% CO2). After MTT solution (20 μL, 5 mg/mL) was added to each well, the plate was incubated for a further 4 h. Then the media was removed. Formazan crystals were dissolved with DMSO (150 μL). After mixing well, the absorbance was quantified at 490 nm with a BIORAD 550 spectrophotometer (Bio-rad Life Science Development Ltd., Beijing, China). Wells containing no drugs were used to be blanks. The IC50 values were defined as the concentration of compounds that produced a 50% reduction of surviving cells and calculated using the Logit-method. Tumor cell growth inhibitory rate was calculated in the following Equation (1): % inhibition = (1 − Sample group OD/Control group OD) × 100%(1)

HT-29 = experiment: MTT cytotoxicity assay, HT-29; assay type: cell-based; conditions: human colorectal cancer cells
Method: as §1

Hela = experiment: MTT cytotoxicity assay, Hela; assay type: cell-based, human; conditions: 72 h, cervical cancer cells
Method: as §1

BGC-823 = experiment: MTT cytotoxicity assay, BGC-823; assay type: cell-based; conditions: human gastric cancer cells
Method: as §1

MDCK cells [1] = experiment: MTT toxicity (nephrotoxicity) evaluation, MDCK; assay type: cell-based; conditions: 72 h, Madin-Darby canine kidney cells
Method: as §1

MDCK cells [2] = experiment: Giemsa staining, MDCK morphology; assay type: cell-based, canine; conditions: 2 μM, 72 h, 200×
Method: (§2) HepG2 cells in logarithmic growth phase were cultured in 6-well plates for 24 h at 37 °C in a humidified atmosphere with 5% CO2. And then each group was treated with different concentrations of compound 6a for 72 h. The cell culture medium was discarded. And the cells were washed twice with PBS, kept in PBS/ethanol (1:1) for 2 min, fixated in ethanol for 10 min. After removing the ethanol, the cells were stained with Giemsa stain for 2 min and observed under inverted phase-contrast microscope at a magnification of 400×. MDCK cells in logarithmic growth phase were cultured in 6-well plates for 24 h at 37 °C in a humidified atmosphere with 5% CO2. The cells were treated with 2 μM of compound 6a and CDDP for 72 h. The same operation was experimented as described above, and the cells were observed under inverted phase-contrast microscope at a magnification of 200×.

[3] = logP by shake flask-ultraviolet spectrophotometry; assay type: physicochemical; conditions: n-caprylic alcohol-water (octanol/water); pH 6.8, n-caprylic alcohol-water, shake flask-UV; read-out: logP (octanol-water partition coefficient)
Source text: Lipophilicity (ClogP) is used in rational drug design as a key factor related to the cell transmembrane transport or other biological processes. ClogP values can either be calculated experimentally or predicted by means of commercially available programs. In this work, ClogP values of the TOA-amino acid derivatives were predicted using Sybyl-X 2.0 (Tripos, Certara Inc., St. Louis, MO, USA). […] To determine the octanol-water partition coefficient (logP), a shake flask-ultraviolet spectrophotometry method was used to determine the concentration of 6a and TOA in the water phase and organic phase at pH 6.8 with n-caprylic alcohol-water as the simulation system. […] However, the better activity connected with the increases of these amino acid conjugates’ solubility is worthy of further study.

HepG2 cells [4] = experiment: Giemsa staining, HepG2 morphology; assay type: cell-based, human; conditions: 1, 2 and 4 μM, 72 h, 400×
Method: as §2

HepG2 cells [5] = experiment: DAPI staining, HepG2 nuclear changes; assay type: cell-based, human; conditions: 1, 2 and 4 μM, 72 h, 400×
Method: HepG2 cells in logarithmic growth phase were allowed to grow in 6-well plates for 24 h at 37 °C in a humidified atmosphere with 5% CO2. And each group was treated with different concentrations of compound 6a for 72 h. Cell culture medium was discarded and the cells were washed twice with PBS. The cells were fixed with 4% paraformaldehyde (pH 7.4) for 15 min and then washed twice with PBS. With an excitation wavelength of 470 nm, 4',6-diamidino-2-phenylindole (DAPI, 600 nM, Molecular Probes/Invitrogen Life Technologies, Carlsbad, CA, USA) staining was then performed for 2 min and nuclear fragments were observed using inverted phase-contrast microscope at a magnification of 400×.

[6] = tested on: HepG2, HT-29, Hela and BGC-823; experiment: MTT cytotoxicity, summary statements over the cell lines; assay type: cell-based, human; conditions: Homo sapiens, HepG2, HT-29, Hela and BGC-823, MTT; read-out: IC50, cytotoxicity on all four cancer cell lines
Method: as §1

[7] = MTT cytotoxicity, summary statements over the cell lines; assay type: cell-based, human; conditions: human (HepG2, HT-29, Hela, BGC-823); dog (MDCK), HepG2, HT-29, Hela, BGC-823 and MDCK cells, four cancer cell lines and MDCK, MTT; read-out: IC50, cytotoxicity on both cancer and MDCK cells
Method: as §1

Structure (SMILES)	logP [3]	melting point [°C]	IC50 (HepG2; 72 h) [µM]	IC50 (HT-29; 72 h) [µM]	IC50 (Hela) [µM]	IC50 (BGC-823; 72 h) [µM]	IC50 (MDCK cells [1]) [µM]	Morphological changes of MDCK cells (Giemsa staining) (MDCK cells [2])	IC50 (HepG2; HepG2, 72 h) [µM]	IC50 (HT-29; HT-29, 72 h) [µM]	IC50 (Hela; Homo sapiens) [µM]	IC50 (BGC-823; BGC-823, 72 h) [µM]	IC50 (MDCK cells [1]; Canis lupus familiaris, MDCK) [µM]	Morphological changes of HepG2 cells (Giemsa staining) (HepG2 cells [4])	Nuclear changes of HepG2 cells (DAPI staining) (HepG2 cells [5])	pIC50 [6]	IC50 at 72 h [7] [nM]
[NH2][Pt]([NH2])([Cl])[Cl] [CDDP, cisplatin, reference compound]			2.86	6.11	9.84	6.82	3.69	less density, larger volume, lighter nuclear staining and cellular atypia									
Cc1nc(C)c(COC(=O)[C@]23CCC(C)(C)CC2C2=CCC4[C@@]5(C)CC[C@H](OC(=O)CN)C(C)(C)C5CC[C@@]4(C)[C@]2(C)CC3)nc1C (stereo partly drawn) [Compound 6a, 3β-Glycine ester olean-12-en-28-oic acid-3,5,6-trimethylpyrazin-2-methyl ester]	4.3							no significant morphological changes	2	2.5	3.26	3.06	4.88	loss of intercellular contacts, lysis of nuclei, increased cell debris and membrane damage	condensed chromatin, nuclear fragmentation and weak fluorescence		
Cc1nc(C)c(COC(=O)[C@]23CCC(C)(C)CC2C2=CCC4[C@@]5(C)CC[C@H](OC(=O)[C@H](C)N)C(C)(C)C5CC[C@@]4(C)[C@]2(C)CC3)nc1C (stereo partly drawn) [Compound 6b, 3β-L-Alanine ester olean-12-en-28-oic acid-3,5,6-trimethylpyrazin-2-methyl ester]		89.7 to 92.1							2.32	4.77	7.69	4.47	5.12			> 5.10	
Cc1nc(C)c(COC(=O)[C@]23CCC(C)(C)CC2C2=CCC4[C@@]5(C)CC[C@H](OC(=O)[C@@H]6CCCN6)C(C)(C)C5CC[C@@]4(C)[C@]2(C)CC3)nc1C (stereo partly drawn) [Compound 6c, 3β-L-Proline ester olean-12-en-28-oic acid-3,5,6-trimethylpyrazin-2-methyl ester]		89.6 to 91.3							2.39	3.21	6.75	4.98	5.03			> 5.10	
Cc1nc(C)c(COC(=O)[C@]23CCC(C)(C)CC2C2=CCC4[C@@]5(C)CC[C@H](OC(=O)[C@@H](N)CC(C)C)C(C)(C)C5CC[C@@]4(C)[C@]2(C)CC3)nc1C (stereo partly drawn) [Compound 6d, 3β-L-Leucine ester olean-12-en-28-oic acid-3,5,6-trimethylpyrazin-2-methyl ester]		89.6 to 91.6							> 25	> 25	> 25	> 25	> 25				
CC[C@H](C)[C@H](N)C(=O)O[C@H]1CC[C@@]2(C)C(CC[C@]3(C)C2CC=C2C4CC(C)(C)CC[C@]4(C(=O)OCc4nc(C)c(C)nc4C)CC[C@]23C)C1(C)C (stereo partly drawn) [Compound 6e, 3β-L-Isoleucine ester olean-12-en-28-oic acid-3,5,6-trimethylpyrazin-2-methyl ester]		89.8 to 90.7							5.97	9.83	> 25	> 25	> 25				
Cc1nc(C)c(COC(=O)[C@]23CCC(C)(C)CC2C2=CCC4[C@@]5(C)CC[C@H](OC(=O)[C@@H](N)C(C)C)C(C)(C)C5CC[C@@]4(C)[C@]2(C)CC3)nc1C (stereo partly drawn) [Compound 6f, 3β-L-Valine ester olean-12-en-28-oic acid-3,5,6-trimethylpyrazin-2-methyl ester]		89.5 to 91							4.26	5.96	> 25	9.52	9.79				
Cc1nc(C)c(COC(=O)[C@]23CCC(C)(C)CC2C2=CCC4[C@@]5(C)CC[C@H](OC(=O)[C@@H](N)CCCCN)C(C)(C)C5CC[C@@]4(C)[C@]2(C)CC3)nc1C (stereo partly drawn) [Compound 6g, 3β-L-Lysine ester olean-12-en-28-oic acid-3,5,6-trimethylpyrazin-2-methyl ester]		87.5 to 88.2							2.27	2.35	2.38	2.48	2.31				< 2500

Now from value to compound, other results behind:

logP [3]	melting point [°C]	Structure (SMILES)	IC50 (HepG2; 72 h) [µM]	IC50 (HT-29; 72 h) [µM]	IC50 (Hela) [µM]	IC50 (BGC-823; 72 h) [µM]	IC50 (MDCK cells [1]) [µM]	Morphological changes of MDCK cells (Giemsa staining) (MDCK cells [2])	IC50 (HepG2; HepG2, 72 h) [µM]	IC50 (HT-29; HT-29, 72 h) [µM]	IC50 (Hela; Homo sapiens) [µM]	IC50 (BGC-823; BGC-823, 72 h) [µM]	IC50 (MDCK cells [1]; Canis lupus familiaris, MDCK) [µM]	Morphological changes of HepG2 cells (Giemsa staining) (HepG2 cells [4])	Nuclear changes of HepG2 cells (DAPI staining) (HepG2 cells [5])	pIC50 [6]	IC50 at 72 h [7] [nM]
	82.4 to 83.8	Cc1nc(C)c(COC(=O)[C@]23CCC(C)(C)CC2C2=CCC4[C@@]5(C)CC[C@H](OC(=O)[C@@H](N)Cc6ccccc6)C(C)(C)C5CC[C@@]4(C)[C@]2(C)CC3)nc1C (stereo partly drawn) [Compound 6h, 3β-L-Phenylalanine ester olean-12-en-28-oic acid-3,5,6-trimethylpyrazin-2-methyl ester]							8.22	9.5	> 25	> 25	8.12				
	81.9 to 82.5	CNCC(=O)O[C@H]1CC[C@@]2(C)C(CC[C@]3(C)C2CC=C2C4CC(C)(C)CC[C@]4(C(=O)OCc4nc(C)c(C)nc4C)CC[C@]23C)C1(C)C (stereo partly drawn) [Compound 6i, 3β-L-Sarcosine ester olean-12-en-28-oic acid-3,5,6-trimethylpyrazin-2-methyl ester]							10.2	16.9	12.6	16	15.8				
	124.6 to 125.8	Cc1nc(C)c(COC(=O)[C@]23CCC(C)(C)CC2C2=CCC4[C@@]5(C)CC[C@H](OC(=O)[C@@H]6CCC(=O)N6)C(C)(C)C5CC[C@@]4(C)[C@]2(C)CC3)nc1C (stereo partly drawn) [Compound 6j, 3β-L-Pyroglutamate ester olean-12-en-28-oic acid-3,5,6-trimethylpyrazin-2-methyl ester]															
	206.9 to 207.7	Cc1nc(C)c(COC(=O)[C@]23CCC(C)(C)CC2C2=CCC4[C@@]5(C)CC[C@H](OC(=O)[C@@H](N)Cc6c[nH]c7ccccc67)C(C)(C)C5CC[C@@]4(C)[C@]2(C)CC3)nc1C (stereo partly drawn) [Compound 6k, 3β-L-Tryptophan ester olean-12-en-28-oic acid-3,5,6-trimethylpyrazin-2-methyl ester]							11.4	> 25	> 25	10	10.8				
	107.1 to 108.5	Cc1nc(C)c(COC(=O)[C@]23CCC(C)(C)CC2C2=CCC4[C@@]5(C)CC[C@H](OC(=O)[C@@H](N)CO)C(C)(C)C5CC[C@@]4(C)[C@]2(C)CC3)nc1C (stereo partly drawn) [Compound 6l, 3β-L-Serine ester olean-12-en-28-oic acid-3,5,6-trimethylpyrazin-2-methyl ester]							4.78	4.83	5.22	4.9	3.12			> 5.10	
